# Measured values reported in paper PMC8838415, “Discovery of Novel Pleuromutilin Derivatives as Potent Antibacterial Agents for the Treatment of MRSA Infection” (Molecules, 2022).
# Assays:
# S. aureus (144) = test: MIC and MBC, broth dilution, S. aureus 144; type: cell-based; details: Staphylococcus aureus; S. aureus 144 (clinical strain)
# Method in brief: (§1)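 Compounds, in 2.5% tween-80/2.5% DMSO, serially diluted in MH broth over 32–0.01 µg/mL with 5 × 10^5 CFU/mL inoculum, triplicates, 22–26 h at 37 °C; MIC = lowest concentration with no visible growth. MBC from plating non-turbid wells on MH agar, further 22–26 h at 37 °C.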
# [1] = tested on: methicillin-resistant S. aureus (ATCC 43300); test: MIC and MBC, broth dilution, MRSA ATCC 43300; type: cell-based; details: Staphylococcus aureus
# Method in brief: as §1
# S. aureus (AD3) = test: MIC and MBC, broth dilution, S. aureus AD3; type: cell-based; details: Staphylococcus aureus; S. aureus AD3 (clinical strain)
# Method in brief: as §1
# 50S ribosome = test: SPR interaction and affinity analysis; type: binding, S. aureus ATCC 43300; details: 4 °C
# Method in brief: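 50S subunit purified from S. aureus ATCC 43300 by sucrose cushion/gradient; compounds (100 μM in DMSO) photo-cross-linked on sensor chip. Ribosome flowed at 200–3200 nM in PBST pH 7.4, 4 °C, 600 s association, 360 s dissociation. KD = Kd/Ka from 1:1 Langmuir fit with mass transfer.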
# MRSA ATCC 43300 [2] = test: Post antibiotic effect (PAE)
# Procedure: By diluting with the preheated MH broth 1000 times, the compound was removed from the sample. […] The samples were diluted decuple with sterile saline and plated onto the preheated MH agar plates. […] The PAE value was calculated by the equation (PAE = TA – TC) and presented after an hour.
# MRSA ATCC 43300 [3] = test: Constant concentration time-kill curves; type: cell-based, Staphylococcus aureus; details: 2× MIC, in 9 h
# Procedure: The time-kill curve experiments of compound 8 and compound 9 were performed according to a previous report in triplicate. The logarithmic phase of MRSA 43300 was diluted to about 10^6 CFU/mL with MH broth. […] All samples were shaken at 37 °C. Samples (100 μL) were taken at 0, 3, 6, 9 and 24 h from the mixtures. Each sample was diluted decuple continuously with sterile saline. Then, 20 μL of the diluted sample was plated on the sterile MH agar plate and incubated for 22–26 h at 37 °C. The total bacteria on the plates were counted as CFU/mL to calculate the bacterial colonies. The time-kill curve was constructed by scheming log10 CFU/mL of bacteria counts versus time.
smiles,measurement,setting,value
"C=C[C@]1(C)C[C@@H](OC(=O)CNc2ccc(F)cc2)[C@]2(C)[C@H](C)CC[C@]3(CCC(=O)[C@H]32)[C@@H](C)[C@@H]1O [Compound 9, 22-(4-Fluoroanilineyl)-22-deoxypleuromutilin]",MBC,S. aureus (144),1 µg/mL
same,MIC,S. aureus (144),0.5 µg/mL
same,MBC,[1],0.25 µg/mL
same,MIC,[1],0.06 µg/mL
same,MBC,S. aureus (AD3),0.5 µg/mL
same,MIC,S. aureus (AD3),0.12 µg/mL
same,Avg ka,50S ribosome; 1:1 Langmuir binding,417 M⁻¹ s⁻¹
same,Avg kd,50S ribosome; 1:1 Langmuir binding,7.39e-06 s⁻¹
same,Kd,50S ribosome; KD = Kd/Ka,17.7 nM
same,PAE,MRSA ATCC 43300 [2]; exposure to 2× MIC for 2 h,1.54 h
same,PAE,MRSA ATCC 43300 [2]; exposure to 4× MIC for 2 h,1.71 h
same,MRSA killed (time-kill),MRSA ATCC 43300 [3],99.9%
same,melting point,,91 to 93 °C
